# Assay results: patent US5236914A, “Derivatives of metalloporphyrins and application thereof for therapeutic purposes and in preparing hybrid molecules” (Centre National de la Recherche Scientifique (CNRS), priority 1988, dated 1993)
# “Also recorded” adds a separate entry of the source. Where two headings read alike, the source gives them in different places.
# Key:
# L1210 cells = test: cytotoxic activity on murine leukemia cells of the L1210 type (inhibition of cell growth); assay type: cell-based; conditions: in vitro, only ID50 lower than 2 μM considered significant, read-out: ID50 (dose inhibiting 50% of cell growth)
# Experimental: The cytotoxic activity was determined on murine leukemia cells of the L1210 type according to a method already described (by C. Paoletti, S. Cros eta al., Chem. Bio. Interact, 25, 45 […]. The effect on cell growth is expressed in terms of the dose inhibiting 50% of cell growth (ID50). Only the values of ID50 lower than 2 μM can be considered as being significant from the biological point of view.
# [1] = system: supercoiled form (form I) of the DNA of the bacteriophage OX 174; test: nuclease activity: cleavage of supercoiled DNA observed by electrophoresis on agarose gel; assay type: biochemical; conditions: for Form I / Form II / Form III: 2 min with oxidant
# Experimental: In fact, only 13% of form I remains at the end of 2 min in the presence of 250 nM of the metalloporphyrin and 5 μM of potassium hydrogen persulfate, KHSO5. The cleavages are single-strandcleavages since the form II (circular duplex DNA with one cleavage) accumulates before being converted to form III (linear duplex DNA). The experimental conditions and the details of the analytical method are given in the reference Fouquet et al. (cf. page 1).
# 1 μM of metalloporphyrin
# pre-incubation time (DNA +
# a) 20 min., b) 1 min. time of incubation
# DNA = conditions: in the presence of ferric ions, molecular oxygen and reducers; cited from earlier work
# [2] = 250 nM metalloporphyrin; 5 μM KHSO5; pre-incubation a) 20 min
# [3] = 250 nM metalloporphyrin; 5 μM KHSO5; pre-incubation b) 1 min
# [4] = 1 μM metalloporphyrin; 5 μM KHSO5; pre-incubation a) 20 min
molecule,measurement,setting,value
"CC(=O)[O-].CC(=O)[O-].CC(=O)[O-].CC(=O)[O-].CC(=O)[O-].C[n+]1ccc(-c2c3nc(c(-c4cc[n+](C)cc4)c4ccc([n-]4)c(-c4cc[n+](C)cc4)c4nc(c(-c5ccc([N+](C)(C)C)cc5)c5ccc2[n-]5)C=C4)C=C3)cc1.[Mn+3] [1 h) (Mn), Manganese (III) 5-(4-trimethylaminophenyl)-10, 15, 20-tris (N-methyl-4 pyridyl)-porphyrin pentaacetate]",IC50,L1210 cells,540 nM
same,Form I,[1]; [2],13%
same,Form II,[1]; [2],78%
same,Form III,[1]; [2],9%
same,Form I,[1]; [3],63%
same,Form II,[1]; [3],37%
same,form I remaining at the end of 2 min,"[1]; 250 nM metalloporphyrin, 5 μM potassium hydrogen persulfate KHSO5",13%
same,Form II,[1]; [4],59%
same,Form III,[1]; [4],41%
same,efficacy of cleavage / nuclease activity in words,"[1]; DNA in vitro, listed as 1h",very marked; also recorded: single-strandcleavages
"COc1ccc2[nH]c3c(C)c4cc[n+](CCCCC(=O)O)cc4c(C)c3c2c1 [5 b), N^2-(4-carboxybutyl)-9-methoxy-ellipticinium chloride]",IC50,L1210 cells; Mus musculus,> 23000 nM
"Manganese (III) 5-(4-hydroxyphenyl)-10, 15, 20-tris (N-methyl-4-pyridyl)-porphyrin tetraacetate [2 n) (Mn)]",IC50,L1210 cells,680 nM
bleomycin,nuclease activity in words,DNA,high nuclease activity
